In ChEMBL document CHEMBL3046456, “Anti-angiogenic/proliferative behavior of a 4-aryl-4H-chromene on blood vessels endothelial cells: A possible evidence on dual anti-tumor activity” (Med Chem Res, 2011):
The source made the active and inactive calls. No cut-off for these calls is given here.

Key:
[1] = test system: HUVEC; experiment: Antiproliferative activity against Homo sapiens (human) HUVEC cells at 3.11 to 124 uM after 3 days by cell counting analysis; type: functional, cell-based
[2] = test system: HUVEC; experiment: Cytotoxicity against Homo sapiens (human) HUVEC cells after 48 hr by LDH assay; type: cell-based
[3] = test system: HUVEC; experiment: Cytotoxicity against Homo sapiens (human) HUVEC cells after 48 hr by trypan blue assay; type: cell-based
[4] = test system: HUVEC; experiment: Antiangiogenic activity against Homo sapiens (human) HUVEC cells assessed as inhibition of capillary tube formation after 3 days by microscopic analysis; type: functional, cell-based
[5] = test system: HUVEC; experiment: Antiproliferative activity against Homo sapiens (human) HUVEC cells at 1 ug/ml after 3 days by cell counting analysis; type: functional, cell-based
[6] = test system: HUVEC; experiment: Antiproliferative activity against Homo sapiens (human) HUVEC cells at <10 ug/ml after 3 days by cell counting analysis; type: functional, cell-based
[7] = test system: HUVEC; experiment: Antiproliferative activity against Homo sapiens (human) HUVEC cells after 3 days by cell counting analysis; type: functional, cell-based
[8] = test system: HUVEC; experiment: Cytotoxicity against Homo sapiens (human) HUVEC cells up to 40 ug/ml after 48 hr by LDH assay; type: cell-based
[9] = test system: HUVEC; experiment: Cytotoxicity against Homo sapiens (human) HUVEC cells up to 40 ug/ml after 48 hr by trypan blue assay; type: cell-based
[10] = molecular target: 72 kDa type IV collagenase (Homo sapiens) (UniProt P08253); experiment: Inhibition of MMP2 (unknown origin) at 37.32 uM after 16 hr by gelatin zymographic analysis
72 kDa type IV collagenase (Homo sapiens), sequence (P08253 110-660 limits assumed): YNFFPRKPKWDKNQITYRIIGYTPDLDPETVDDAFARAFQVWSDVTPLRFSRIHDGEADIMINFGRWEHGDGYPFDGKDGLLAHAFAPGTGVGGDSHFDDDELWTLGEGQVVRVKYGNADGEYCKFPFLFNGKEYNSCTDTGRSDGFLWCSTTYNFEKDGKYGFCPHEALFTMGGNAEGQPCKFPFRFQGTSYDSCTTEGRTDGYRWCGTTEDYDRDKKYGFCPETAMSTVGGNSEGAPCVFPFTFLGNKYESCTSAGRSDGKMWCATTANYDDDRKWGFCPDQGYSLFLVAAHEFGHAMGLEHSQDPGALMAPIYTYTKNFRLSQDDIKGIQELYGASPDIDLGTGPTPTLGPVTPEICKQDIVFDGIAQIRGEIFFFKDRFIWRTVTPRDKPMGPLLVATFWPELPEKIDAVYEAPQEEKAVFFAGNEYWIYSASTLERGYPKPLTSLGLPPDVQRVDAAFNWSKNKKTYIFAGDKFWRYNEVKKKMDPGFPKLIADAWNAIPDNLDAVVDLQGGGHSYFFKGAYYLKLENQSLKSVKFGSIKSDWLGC

[11] = molecular target: Matrix metalloproteinase-9 (Homo sapiens) (UniProt P14780); experiment: Inhibition of MMP9 (unknown origin) at 24.88 uM after 16 hr by gelatin zymographic analysis
Matrix metalloproteinase-9 (Homo sapiens), sequence (P14780 whole entry): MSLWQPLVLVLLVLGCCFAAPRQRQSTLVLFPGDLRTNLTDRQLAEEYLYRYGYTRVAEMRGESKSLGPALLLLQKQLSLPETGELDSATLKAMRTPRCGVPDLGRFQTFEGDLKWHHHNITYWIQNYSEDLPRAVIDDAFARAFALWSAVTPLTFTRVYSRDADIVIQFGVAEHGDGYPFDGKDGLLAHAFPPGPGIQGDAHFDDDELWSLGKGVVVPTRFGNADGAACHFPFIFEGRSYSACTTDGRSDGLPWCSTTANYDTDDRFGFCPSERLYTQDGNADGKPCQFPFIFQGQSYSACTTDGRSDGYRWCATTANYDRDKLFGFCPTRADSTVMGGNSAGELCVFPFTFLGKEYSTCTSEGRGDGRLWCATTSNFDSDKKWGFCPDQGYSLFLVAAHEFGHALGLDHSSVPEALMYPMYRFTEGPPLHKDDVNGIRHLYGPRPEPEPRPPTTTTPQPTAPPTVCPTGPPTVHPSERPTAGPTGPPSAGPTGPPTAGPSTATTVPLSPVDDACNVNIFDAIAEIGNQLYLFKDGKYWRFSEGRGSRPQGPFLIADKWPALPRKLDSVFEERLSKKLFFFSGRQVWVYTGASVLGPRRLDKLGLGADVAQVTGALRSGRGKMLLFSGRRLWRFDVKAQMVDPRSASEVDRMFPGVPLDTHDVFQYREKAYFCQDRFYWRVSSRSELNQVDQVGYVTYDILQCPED

[12] = molecular target: Matrix metalloproteinase-9 (Homo sapiens) (UniProt P14780); experiment: Inhibition of MMP9 (unknown origin) after 16 hr by gelatin zymographic analysis
[13] = test system: HUVEC; experiment: Antiangiogenic activity against Homo sapiens (human) HUVEC cells assessed as inhibition of capillary tube formation at 1 ug/ml after 3 days by microscopic analysis; type: functional, cell-based

| SMILES | Activity [1] | Activity [2] | Activity [3] | further results |
| --- | --- | --- | --- | --- |
| CCCOc1ccc2c(c1)OC/C(=C\c1ccc(O)c(O)c1)C2=O | inactive | Dose-dependent effect | Dose-dependent effect |  |
| CN(C)c1ccc2c(c1)OC(N)=C(C#N)C2c1cccc([N+](=O)[O-])c1 (centres undefined) | inactive | Dose-dependent effect | Dose-dependent effect |  |
| COc1ccccc1C1C(C#N)=C(N)Oc2cc(N(C)C)ccc21 (centres undefined) |  |  |  | inhibition [4]: Dose-dependent effect; Activity [5]: Active; Activity [6]: Active; Activity [7]: Dose-dependent effect; Activity [8]: Non-toxic; Activity [9]: Non-toxic; inhibition [10]: Active; inhibition [11]: Active; inhibition [12]: Dose-dependent effect; inhibition [13]: Active |
| COc1ccc2c(c1)OC/C(=C\c1ccc(F)cc1)C2=O | inactive | Dose-dependent effect | Dose-dependent effect |  |
| CN(C)c1ccc2c(c1)OC(N)=C(C#N)C2c1cccc(C(F)(F)F)c1 (centres undefined) | inactive | Dose-dependent effect | Dose-dependent effect |  |
| COc1ccc2c(c1)OC/C(=C\c1ccc(O)cc1)C2=O | inactive | Dose-dependent effect | Dose-dependent effect |  |
| COc1ccc2c(c1)OC/C(=C\c1ccc(Cl)cc1)C2=O | inactive | Dose-dependent effect | Dose-dependent effect |  |
| COc1ccc2c(c1)OC/C(=C\c1cc(OC)c(O)c(OC)c1)C2=O | inactive | Dose-dependent effect | Dose-dependent effect |  |
| COc1ccc2c(c1)OC/C(=C\c1ccc(O)c(O)c1)C2=O | inactive | Dose-dependent effect | Dose-dependent effect |  |
| COc1ccc2c(c1)OC/C(=C\c1ccc(Cl)cc1Cl)C2=O | inactive | Dose-dependent effect | Dose-dependent effect |  |
| COc1ccc(/C=C2\COc3cc(OC)ccc3C2=O)cc1 | inactive | Dose-dependent effect | Dose-dependent effect |  |
| COc1ccc2c(c1)OC/C(=C\c1ccccc1OC)C2=O | inactive | Dose-dependent effect | Dose-dependent effect |  |
| COc1ccc2c(c1)OC/C(=C\c1ccc(OC)c(OC)c1)C2=O | inactive | Dose-dependent effect | Dose-dependent effect |  |
| COc1ccc2c(c1)OC/C(=C\c1ccc(C(F)(F)F)cc1)C2=O | inactive | Dose-dependent effect | Dose-dependent effect |  |
